In one assay the test system is Gli-Luc/MEF cells. The assay is described as follows: Gli-Luc/MEF assay. The class given is cell-based, mouse. Particulars: Mus musculus, MEF; Shh-stimulated luciferase, 48 hours. Here is the method:
The Gli-Luc/MEF cells obtained from Gli-Luc transgenic mice contain a luciferase reporter gene under the control of the Gli response element. Luciferase activity stimulated with Sonic hedgehog ligand was inhibited by Smo inhibitors, and IC50 was subsequently calculated.
Plates were incubated at 37° C. and 5% CO2 overnight. On day two, cells were dosed with test compounds at a final concentration ranging from 3 μM to 50 μM at a 3-time series dilution. Immediately after dosing cells with compounds, recombinant mouse sonic hedgehog (Shh, R&D Systems 464-SH) was added to a final concentration of 2 μg/mL. The cells were incubated with compounds and Shh for 48 hours at 37° C. and 5% CO2. Luciferase assays were conducted on Day 4 using the Bright-Glo Luciferase assay system (Promega E2620) according to Promega's protocol. Briefly, Bright-Glo luciferase reagent was made up and 25 μL were added to each well of the 384-well plate containing media. Plates were kept at room temperature for 5 minutes, and then read on an Envision Luminescence plate reader (Perkin-Elmer). IC50 of the inhibition was calculated by using GraphPad Prism.

The next assay concerns the target human Smo (Homo sapiens (Human), UniProt Q99835). The assay is described as follows: Smo radioligand competition binding assay. Particulars: for inhibition at 0.05 µM: 0.05 μM test compound, read-out: Smo % inh. @ 0.05 μM. How it is done: Smo Radioligand Competition Binding Assay
Membranes were prepared from a stable cell line created in HEK293FlpIn-TetR cells (Invitrogen) using Flp recombinase-mediated insertion of the pSecTag-FRT/V5-His vector containing a cDNA encoding amino acids […] of human Smo fused to the murine Igk leader sequence to produce a cell surface expressed Smo 181-781 protein. Hygromycin-resistant clones were obtained and stained for LacZ expression (no expression indicates a correct knock-in of fusion cDNA). LacZ-negative cells were analyzed for binding tritiated Smo antagonists. For membrane preparation, the HEK293 cells expressing Smo 181-781 were grown to 90% confluence in nine to fifteen 245 mm×245 mm×22 mm dishes, washed with Dulbecco's PBS (15 mL per dish) and harvested via scraping in 10 mL of DPBS. The cells were collected and centrifuged at 1500 rpm (400×g) for 10 min at 4° C. The cell pellets were re-suspended in 40 mL of cold DPBS and washed by centrifugation at 2300 rpm (950×g max) for 10 minutes at 4° C. The supernatant was aspirated and the cell pellet was snap frozen in a methanol/dry ice bath and stored at −70° C. For membrane preparation, 15 mL of Membrane Preparation Buffer (50 mM Tris-HCl pH 7.5, 250 mM sucrose with Roche complete protease cocktail tablets) was added to the tube containing the cell pellet, then cells are rapidly thawed, and homogenized using an Ultra-Turrax T8 (IKA Labortechnik) set on “6” for 15 seconds for 5-6 times in icy water bath. This homogenate was diluted up to 50 mL using Membrane Preparation Buffer and centrifuged at 35,000 rpm in a Beckman Ti45 rotor (140,000×g) for 35 minutes at 4° C. followed by aspiration of the supernatant and re-suspension of the pellet in 5 mL of Assay Buffer (50 mM Tris-HCl pH 7.5, 100 mM NaCl, 25 mM MgCl2, 1 mM EDTA, and 0.1% protease free bovine serum albumin). The re-suspended pellet was then homogenized in a glass tissue grinder. The re-suspended membranes were aliquoted (0.5 mL aliquots), snap frozen and stored at −70° C. Total protein in the membrane preparation was determined using the Pierce BCA protein assay (Pierce Chemical).
For the binding competition assay, 100 μL of Assay Buffer was added to all the wells of a 96 well GF/B filter plate (Millipore MultiScreen-HTS-FB cat# MSFBN6B50) for 10 minutes to pre-wet the filter prior to evacuation of the buffer (8 inches Hg for 8 seconds). To the pre-wet wells is added: 20 μL of Assay Buffer, 10 μL diluted test agent, 20 μL of a tritiated Smo antagonist (15 nM stock solution), and 50 μL of membrane preparation (40 μg total protein per well). The plates are sealed and mixed at room temperature for 5 min, incubated at room temperature for 2 hours, then washed 5 times with 100 μL/each of wash buffer and vacuum dried for 8 seconds at 8 inches Hg. The plate is then dried for one hour in a 60° C. oven prior to the addition of 45 μL of Microscint 20 (Packard, #6013621) to each well and incubation at RT for 30 minutes to 1 hour. The plate is counted in a TopCount scintillation counter (Perkin Elmer).
Data analysis uses Excel for % Inhibition and Graphpad Prism for IC50 calculation. Total binding (TB, in the absence of inhibitors)=average of tritiated Smo antagonist 3 nM+Smo membrane (40 μg/wells (approx 5000-7000 CPM)). Non-specific binding (NSB)=average of tritiated Smo antagonist (3 nM)+cold Smo antagonist (30 μM)+Smo membrane (approx 600-1200 CPM). Specific binding (SB)=(total binding−non-specific binding). % Inhibition=[1−(compound Specific binding/control Specific binding)]×100%. IC50 is calculated by fitting the data to the four parameter sigmoidal dose-response curve (variable slope) Y=Bottom+(Top-Bottom)/(1+10^((LogEC50−X)*HillSlope)). X is the logarithm of the inhibitor concentration. Y is the response; Y starts at Bottom and goes to Top with a sigmoid shape.
(In general: Displacement assays read how much labelled ligand stays bound in the presence of the test substance.)

Chain of human Smo (Q99835 181-787): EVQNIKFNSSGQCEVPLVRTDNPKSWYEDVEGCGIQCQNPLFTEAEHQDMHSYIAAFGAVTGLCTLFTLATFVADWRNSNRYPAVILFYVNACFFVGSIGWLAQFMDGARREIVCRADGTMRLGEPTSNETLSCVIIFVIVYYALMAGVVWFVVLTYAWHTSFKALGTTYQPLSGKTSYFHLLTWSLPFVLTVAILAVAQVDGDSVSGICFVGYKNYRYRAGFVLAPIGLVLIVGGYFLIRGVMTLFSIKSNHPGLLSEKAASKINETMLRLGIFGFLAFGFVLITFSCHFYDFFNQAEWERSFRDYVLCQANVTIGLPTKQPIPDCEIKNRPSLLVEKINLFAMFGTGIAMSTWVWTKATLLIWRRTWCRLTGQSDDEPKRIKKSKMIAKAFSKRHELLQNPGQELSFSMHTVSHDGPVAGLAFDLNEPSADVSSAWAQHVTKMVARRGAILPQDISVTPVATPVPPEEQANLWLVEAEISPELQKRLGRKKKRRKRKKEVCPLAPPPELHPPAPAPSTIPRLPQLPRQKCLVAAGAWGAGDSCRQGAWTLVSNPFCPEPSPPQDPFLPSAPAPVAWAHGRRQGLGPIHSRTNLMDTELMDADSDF

In general, IC50 refers to the concentration that gives 50% inhibition. A lower IC50 goes with inhibition by little substance. For `COCCOCC1CCN(c2cc(-c3ncccc3C)c(Cl)cn2)CC1` [Example A-37, 5′-chloro-2′-{4-[(2-methoxyethoxy)methyl]piperidin-1-yl}-3-methyl-2,4′-bipyridine], the IC50 with Gli-Luc/MEF cells was found to be 98 nM; on human Smo it was 209 nM. Also, on human Smo, the inhibition at 0.05 µM is 71.6%.

With `Cc1cccnc1-c1cc(N2CCC(OCC(C)C)CC2)ncc1Cl` [Example A-38, 5′-chloro-2′-(4-isobutoxypiperidin-1-yl)-3-methyl-2,4′-bipyridine], the IC50 turned out to be 60.2 nM with Gli-Luc/MEF cells and 164 nM on human Smo. Besides, the inhibition at 0.05 µM at human Smo turned out to be 78.5%.

Consider `CCOC(=O)N1CCN(c2cc(-c3ncccc3C)c(Cl)cn2)CC1` [Example A-39, ethyl 4-(5′-chloro-3-methyl-2,4′-bipyridin-2′-yl)piperazine-1-carboxylate], for which the IC50 with Gli-Luc/MEF cells turned out to be 48.5 nM; on human Smo, 109 nM. Besides, at human Smo, the inhibition at 0.05 µM stood at 80.7%.

In the assay on Gli-Luc/MEF cells, `CCCNC(=O)COC1CCN(c2cc(-c3ncccc3C)c(Cl)cn2)CC1` [Example A-40, 2-{[1-(5′-chloro-3-methyl-2,4′-bipyridin-2′-yl)piperidin-4-yl]oxy}-N-propylacetamide] yielded an IC50 of 114 nM. In addition, at human Smo, the concentration for half-maximal inhibition (IC50) was determined as 254 nM and the inhibition at 0.05 µM is 70.2%.

On to `CCN(CC)C(=O)COC1CCN(c2cc(-c3ncccc3C)c(Cl)cn2)CC1` [Example A-41, 2-{[1-(5′-chloro-3-methyl-2,4′-bipyridin-2′-yl)piperidin-4-yl]oxy}-N,N-diethylacetamide], for which the figures for the concentration for half-maximal inhibition (IC50) in the assay on Gli-Luc/MEF cells and on human Smo were 28.5 nM and 131 nM, respectively. For the same compound, the inhibition at 0.05 µM at human Smo came to 82.3%.

Consider `Cc1cccnc1-c1cc(N2CCC(OCC(=O)NC(C)(C)C)CC2)ncc1Cl` [Example A-42, N-tert-butyl-2-{[1-(5′-chloro-3-methyl-2,4′-bipyridin-2′-yl)piperidin-4-yl]oxy}acetamide], for which, in the assay on Gli-Luc/MEF cells, half-maximal inhibition (IC50) was put at 37.1 nM. In addition, at human Smo, the IC50 was determined as 125 nM and the inhibition at 0.05 µM was determined as 80.5%.

In the assay with Gli-Luc/MEF cells, `Cc1cccnc1-c1cc(N2CCN(C(=O)C(C)(C)C)CC2)ncc1Cl` [Example A-43, 5′-chloro-2′-[4-(2,2-dimethylpropanoyl)piperazin-1-yl]-3-methyl-2,4′-bipyridine] came in with an IC50 of 19.1 nM. Also, on human Smo, the IC50 was found to be 25.5 nM and the inhibition at 0.05 µM is 95%.

As to `Cc1cccnc1-c1cc(N2CCN(C(=O)C(C)C)CC2)ncc1Cl` [Example A-44, 5′-chloro-2′-(4-isobutyrylpiperazin-1-yl)-3-methyl-2,4′-bipyridine], in the assay on Gli-Luc/MEF cells, half-maximal inhibition (IC50) required 80.2 nM. Besides, at human Smo, the IC50 stood at 128 nM and the inhibition at 0.05 µM was found to be 82.9%.

Turning to `CS(=O)(=O)NC1CCN(c2ncc(Cl)c(-c3ccccn3)n2)CC1` [Example A-45, N-[1-(5-chloro-4-pyridin-2-ylpyrimidin-2-yl)piperidin-4-yl]methanesulfonamide], in the assay on Gli-Luc/MEF cells, half-maximal inhibition (IC50) was put at 58.2 nM. On human Smo, the IC50 turned out to be 83.7 nM and the inhibition at 0.05 µM is 80.1%.

In the assay with Gli-Luc/MEF cells, `Cc1cccnc1-c1cc(N2CCN(c3ncc(Br)cn3)CC2)ncc1Cl` [Example A-46, 2′-[4-(5-bromopyrimidin-2-yl)piperazin-1-yl]-5′-chloro-3-methyl-2,4′-bipyridine] had an IC50 of 21.1 nM. For the same compound, the inhibition at 0.05 µM at human Smo turned out to be 97.6%.

As for `Cc1cccnc1-c1cc(N2CCN(C(=O)CC(C)(C)O)CC2)ncc1Cl` [Example A-47, 4-[4-(5′-chloro-3-methyl-2,4′-bipyridin-2′-yl)piperazin-1-yl]-2-methyl-4-oxobutan-2-ol], in the assay with Gli-Luc/MEF cells, half-maximal inhibition (IC50) was put at 36.3 nM. For the same compound, at human Smo, the IC50 stood at 21.7 nM and the inhibition at 0.05 µM is 95.2%.

As to `Cc1cccnc1-c1cc(N2CCC(CNS(C)(=O)=O)CC2)ncc1Cl` [Example A-48, N-{[1-(5′-chloro-3-methyl-2,4′-bipyridin-2′-yl)piperidin-4-yl]methyl}methanesulfonamide], the values for the IC50 with Gli-Luc/MEF cells and at human Smo were 48 nM and 57 nM, respectively. The inhibition at 0.05 µM on human Smo turned out to be 82%.
